Several values for one entry are separate records, joined by “and”; a condition that tells them apart may be missing. Equal values may be shown once.
Tests used:
[1] = 298.15 K; 101.33 kPa; Liquid; Vibrating tube method
[2] = excess molar enthalpy (molar enthalpy of mixing); xn = mol fraction of the nth substance listed; details: 298.15 K, 101 kPa, Liquid, Flow calorimetry

CCC(C)(C)C [2,2-dimethylbutane]
Details	mass density [kg/m3]
[1]	644.588

CCC(C)(C)C [2,2-dimethylbutane] + CCCCOCCCC
[2]
Details	excess molar enthalpy [kcal/mol]
x2 = 0.05	0.0065
x2 = 0.1	0.0112
x2 = 0.1499	0.015
x2 = 0.2001	0.018
x2 = 0.2502	0.0205
x2 = 0.2996	0.0224
x2 = 0.3501	0.0237
x2 = 0.3998	0.0246
x2 = 0.4497	0.0249
x2 = 0.5003	0.0246
x2 = 0.5004	0.0245
x2 = 0.5499	0.0239
x2 = 0.6002	0.0228
x2 = 0.6498	0.0213
x2 = 0.6999	0.0197
x2 = 0.7501	0.0173
x2 = 0.8	0.0149
x2 = 0.85	0.0119
x2 = 0.9	0.0088
x2 = 0.95	0.00528

CCC(C)(C)C [2,2-dimethylbutane] + CCCOCCC
[2]
Details	excess molar enthalpy [kcal/mol]
x2 = 0.05	0.00906
x2 = 0.1	0.0163
x2 = 0.15	0.0214
x2 = 0.2	0.0261
x2 = 0.2499	0.0298
x2 = 0.2998	0.0328
x2 = 0.3499	0.0349
x2 = 0.3998	0.036
x2 = 0.4501	0.037
x2 = 0.4995	0.037
x2 = 0.5497	0.0361
x2 = 0.6001	0.0347
x2 = 0.65	0.0325
x2 = 0.7001	0.0298
x2 = 0.7503	0.0265
x2 = 0.8001	0.0226
x2 = 0.85	0.0179
x2 = 0.9	0.0127
x2 = 0.95	0.00676

CC(C)C(C)C [2,3-dimethylbutane]
Details	mass density [kg/m3]
[1]	657.023

CC(C)C(C)C [2,3-dimethylbutane] + CCCCOCCCC
[2]
Details	excess molar enthalpy [kcal/mol]
x2 = 0.05	0.00607
x2 = 0.1	0.0104
x2 = 0.1501	0.0141
x2 = 0.2	0.0172
x2 = 0.2502	0.0196
x2 = 0.3	0.0215
x2 = 0.3499	0.0228
x2 = 0.3998	0.0238
x2 = 0.4501	0.0243
x2 = 0.5	0.0243
x2 = 0.5002	0.0242
x2 = 0.5493	0.0239
x2 = 0.5999	0.0229
x2 = 0.6501	0.0217
x2 = 0.7	0.02
x2 = 0.75	0.0181
x2 = 0.8001	0.0159
x2 = 0.85	0.0133
x2 = 0.9001	0.0101
x2 = 0.95	0.00672

CC(C)C(C)C [2,3-dimethylbutane] + CCCOCCC
[2]
Details	excess molar enthalpy
x2 = 0.05	0.00846 kcal/mol
x2 = 0.1	0.0152 kcal/mol
x2 = 0.15	0.0206 kcal/mol
x2 = 0.2001	0.0252 kcal/mol
x2 = 0.25	0.0288 kcal/mol
x2 = 0.3001	0.0321 kcal/mol
x2 = 0.3499	0.0346 kcal/mol
x2 = 0.4	0.0364 kcal/mol
x2 = 0.4498	0.0374 kcal/mol
x2 = 0.4998	0.0377 kcal/mol and 0.0376 kcal/mol
x2 = 0.55	0.0372 kcal/mol
x2 = 0.5999	0.0359 kcal/mol
x2 = 0.6501	0.034 kcal/mol
x2 = 0.7	0.0314 kcal/mol
x2 = 0.7502	0.028 kcal/mol
x2 = 0.8	0.0242 kcal/mol
x2 = 0.85	0.0193 kcal/mol
x2 = 0.9	0.0138 kcal/mol
x2 = 0.95	0.0075 kcal/mol

CCCOCCC [dipropyl ether]
Details	mass density [kg/m3]
[1]	741.977

Source: the NIST ThermoML archive (doi:10.1016/j.jct.2011.04.006)
